Assay: Tacrolimus tissue pharmacokinetics, oral versus intra-cecal ingestible device delivery
Assay type: in vivo, Yorkshire-Cross farm swine
Settings: swine, intra-cecal ingestible device vs oral, 12 hours post-dose; FIG. 76
Method: No further randomization procedure was employed.
Animals in Group 1 received an ingestible device containing 0.8 mL of vehicle solution (80% alcohol, 20% HCO-60). Animals in Group 2 received orally […] liquid formulation of tacrolimus at 4 mg/0.8 mL per animal (Prograf: 5 mg/mL). Animals in Group 3 received intra-cecally an ingestible device containing tacrolimus at 1 mg in 0.8 mL per ingestible device. Animals in Group 4 received intra-cecally an ingestible device containing tacrolimus at 2 mg in 0.8 mL per ingestible device. Animals in Group 5 received intra-cecally an ingestible device containing tacrolimus at 4 mg in 0.8 mL per ingestible device. […]
Approximately 200˜400 mg of rectal content were collected, if available, with a fecal swab (Copan Diagnostics Nylon Flocked Dry Swabs, 502CS01). The fecal swab was pre-weighed and weighed after collection in the collection tube (Sterile Tube and Cap No Media, PFPM913S), and the sample weight was recorded. […]
For tissue necropsy, small intestine fluid and cecal fluid were collected separately from all the animals into two separate square plastic bottles, and stored at −20° C. The length and diameter of the cecum and the colon was measured from one animal in each group and recorded for reference. […] All samples were weighed, and the tissue sample weights were recorded. […]

- mean concentration of tacrolimus in the cecum tissue and the proximate colon tissue: higher
SMILES: C=CC[C@@H]1/C=C(\C)C[C@H](C)C[C@H](OC)[C@H]2O[C@@](O)(C(=O)C(=O)N3CCCC[C@H]3C(=O)O[C@H](/C(C)=C/[C@@H]3CC[C@@H](O)[C@H](OC)C3)[C@H](C)[C@@H](O)CC1=O)[C@H](C)C[C@@H]2OC [tacrolimus]

— US10980739B2, “Treatment of a disease of the gastrointestinal tract with a chemokine/chemokine receptor inhibitor” (Progenity, Inc., priority 2016, dated 2021)
